In patent EP0158545A1, “[Alpha-(alkylaminomethyl)-benzylthio]-acetic-acid derivatives, process for their preparation and their therapeutic use” (priority 1984, dated 1985):
Entries after “also recorded” stand apart in the source; their conditions may differ.

Experiments:
chiens [1] = assay: Influence on noradrenaline hypertension, dog; assay type: in vivo; conditions: chien
Description: (§1) b) Sur les mêmes chiens on a étudié l'influence du produit vis à vis de l'isoprénaline et de la noradrénaline.
L'hyptertension à la noradrénaline (2 µg/kg I.V.) est augmentée par le CRL 41 252 ([…]), la pression artérielle systolique passe de 208 à 352 mmHg (soit environ de 2,77 x 10^4 à 4,7 x 10^4Pa) au lieu de 204 à 328 mmHg (soit environ de 2,71 à 4,3 x 10 Pa).

[2] = tested on: système nerveux central (SNC); assay: General statement of CNS (antidepressant, sedative) properties; assay type: in vivo
chiens [3] = assay: Influence on isoprenaline effects, dog; assay type: in vivo; conditions: chien
Description: as §1
Avec 10,pg/kg I.V. d'isoprénaline la pression artérielle diastolique du CRL 41 252 passe de 128 à […] ([…] à 6,4 x 10^3 Pa), […]

chiens [4] = assay: Cardiovascular tests in dogs, intraduodenal successive doses; assay type: in vivo; conditions: chien, injection I.M. de 10 mg/kg
chiens [5] = assay: as above; assay type: in vivo, chien
Description: a) Quatre chiens (poids moyen : 13,8 kg) anesthésiés au nembutal reçoivent le CRL 41 250 par voie intraduodénale, aux doses successives de 0,1 mg/kg, 0,5 mg/kg, 1 mg/kg, 2,5 mg/kg, 5 mg/kg puis 10 mg/kg. On mesure la pression artérielle, la fréquence cardiaque, le débit artériel fémoral, le débit artériel vertébral, la température rectale et on observe la coloration de la peau.
a) Deux chiens (poids moyen : 14,5 kg) reçoivent le CRL 41 252 par voie intraduodénale, aux doses successives de 0,1 mg/kg, 0,5 mg/kg, 1 mg/kg, 2,5 mg/kg, 5 mg/kg, 10 mg/kg et 20 mg/kg. On mesure la pression artérielle, la fréquence cardiaque, le débit artériel fémoral, le débit artériel vertébral, les températures rectale et cutanée et on observe la coloration de la peau.

[6] = chien, successive I.D. doses 0,1 to 20 mg/kg

## CC(C)(C)NCC(SCC(N)=O)c1ccccc1F (racemic) [CRL 41 252, fumaratede [α-(tertiobutylaminométhyl)-2-fluorobenzyl]-thioacétamide]
Chiens [1]; after dose cumulée 39,1 mg/kg I.D., control 204
  pression artérielle systolique, before noradrénaline: 208 mmHg
Chiens [1]; noradrénaline 2 µg/kg I.V., after dose cumulée 39,1 mg/kg I.D., control 328
  pression artérielle systolique, after noradrénaline: 352 mmHg
Chiens [1]; noradrénaline 2 µg/kg I.V., dose cumulée de 39,1 mg/kg I.D.
  hypertension à la noradrénaline: augmentée
[2]
  propriétés antidépressives et sédatives: propriétés antidépressives et sédatives
Chiens [3]; after dose cumulée 39,1 mg/kg I.D., control 152
  pression artérielle diastolique, before isoprénaline: 128 mmHg
Chiens [3]; after dose cumulée 39,1 mg/kg I.D., control 192
  fréquence cardiaque, before isoprénaline: 215 battements/ minute
Chiens [3]; after dose cumulée de 39,1 mg/kg I.D.
  effets de l'isoprénaline: légèrement diminués
Chiens [3]; isoprénaline 10,pg/kg I.V., after dose cumulée 39,1 mg/kg I.D., control 48
  pression artérielle diastolique, after isoprénaline: 58 mmHg
Chiens [3]; isoprénaline 10,pg/kg I.V., after dose cumulée 39,1 mg/kg I.D., control 310
  fréquence cardiaque, after isoprénaline: 302 battements/ minute
Chiens [4]
  débits fémoraux: cet effet étant confirmé par l'injection I.M. de 10 mg/kg
Chiens [5]; [6]
  pression artérielle et fréquence cardiaque: n'a pas d'effet sur la pression artérielle ni sur la fréquence cardiaque
  températures rectale et cutanée: augmente les températures rectale et cutanée
Chiens [5]; chien, voie intraduodénale, à partir de 10 mg/kg I.D.
  débits fémoraux: augmente les débits fémoraux à partir de la dose de 10 mg/kg I.D.
Chiens [5]; general statement
  effets vasodilatateurs (propriétés cardiovasculaires): effets vasodilatateurs intéressants; also recorded: effets vasodilatateurs bénéfiques
